Measured values as given in patent US20140357512A1, “HISTONE DEACETYLASE (HDAC) BIOMARKERS IN MULTIPLE MYELOMA” (priority 2013, published 2014).

System: human myeloma cell line MM.1S
Assay: SILAC acetylated-lysine peptide profiling, HDAC inhibitor vs DMSO (light/heavy ratio)
Type: cell-based
Description: An embodiment of the invention comprises utilizing the SILAC method in order to quantitate changes in protein expression between two or more populations of cells. The SILAC method is a technique based on mass spectrometry that detects differences in protein abundance among samples using non-radioactive isotopic labeling. The SILAC method is known in the art, and described in detail in Ong et al., “Stable Isotope Labeling by Amino Acids in Cell Culture, SILAC, as a Simple and Accurate Approach to Expression Proteomics”, Molecular & Cellular Proteomics, vol. 1, pp. 376-386 (2002), which is incorporated herein by reference in its entirety.
Briefly, the SILAC method involves growing two populations of cells in cell culture. The first population of cells is grown in growth media containing normal amino acids (“normal media”). The second population of cells is grown in media lacking a standard essential amino acid (such as lysine), but is then supplemented with a non-radioactive, isotopically labeled form of that essential amino acid (such as lysine labeled with ^13C atoms, rather than normal ^12C atoms), which is called “heavy media”. When the two populations of cells are each growing in the medium, they incorporate the amino acids into all of their proteins. The growth of cells maintained in the heavy media is no different from that in normal media. All peptides containing the heavy amino acids are heavier than their normal counterparts. The cells from each of the two populations of cells are lysed. The lysates from each of the two cell populations are then combined. The combined cell lysates are then analyzed by mass spectrometry. Pairs of chemically identical peptides of different stable isotope composition can be differentiated in a mass spectrometer due to their difference in mass. The ratio of peak intensities in the mass spectrum for such peptide pairs reflects the abundance ratio for the two proteins.
This example describes SILAC studies that were performed to compare the effects of three different HDAC inhibitors (Compound A, Compound B, and tubastatin A) to a control on a human multiple myeloma cell line. The HDAC inhibitors were also compared amongst themselves to determine differences in their effects.
A human myeloma cell line MM.1S was grown using either ^12C (light) or ^13C (heavy) lysine containing culture medium. The “heavy” cells were treated with DMSO as the control, and the “light” cells were treated with a single HDAC inhibitor at 37° C. for 6 hours. The heavy and light cells were lysed, and the lysates were mixed in 1:1 ratio and digested with the protease trypsin. The acetylated lysine containing peptides (due to the action of the HDAC inhibitor) in the digested peptide pool were captured by a non-specific anti-acetylated lysine antibody cocktail (the antibodies identify both light and heavy acetylated peptides), and subjected to mass spectrometry analysis in order to identify thousands of individual peptides.
Thousands of peptides were identified in pairs (^12C and ^13C) due to their known mass differences. The amino acid sequence and quantitative ratio (Light/Heavy) of a given peptide in two differentially treated cell lysates were then determined and annotated with their possible protein (gene) sources.
As stated above, three HDAC inhibitors (Compound A, Compound B, and Tubastatin A) were used. Thus, the SILAC method was performed three times, with a different HDAC inhibitor compared to a control each time. Accordingly, there are three pairs of quantitative data in the table below, i.e., Compound A:DMSO, Compound B:DMSO, and Tubastatin A:DMSO. A cut-off of 1.30 fold of change (increase or decrease) was then used to determine “changed” or “+” in the table, and any peptides with a fold of change less than 1.3 fold were determined to be “unchanged” or “0” in the table. Those peptides that were not identified were marked as “NA” in the table. […]

SMILES: O=C(NO)c1cnc(NC2(c3cccc(F)c3)CCCCC2)nc1 [Compound B, 2-((1-(3-fluorophenyl)cyclohexyl)amino)-N-hydroxypyrimidine-5-carboxamide]
- L/H ratio of acetylated peptide (VETFSGVYK(ac)K (SEQ ID NO: 445), 40S ribosomal protein S7 [178], RPS7): −0.78 log 2
- L/H ratio of acetylated peptide (VEWAK(ac)FQER (SEQ ID NO: 447), Splicing factor 3A subunit 1 [251], SF3A1): −0.55 log 2
- light to heavy ratio (L/H ratio) of acetylated peptide, log 2 scale (VGIVGK(ac)YGTR (SEQ ID NO: 250), 60S ribosomal protein L37a [13], RPL37A): 0.00
- L/H ratio of acetylated peptide (VIIVVK(ac)DGPGFYTTR (SEQ ID NO: 401), Trifunctional enzyme subunit alpha mitochondrial [540], HADHA): −0.70 log 2
- L/H ratio of acetylated peptide TNEK(ac)VELQELNDR (SEQ ID NO: 122) (VIM [104], log 2 scale, drug vs DMSO): 0.00
- L/H ratio of acetylated peptide FANYIDK(ac)VR (SEQ ID NO: 118) (VIM [120], log 2 scale, drug vs DMSO): 0.00
- L/H ratio of acetylated peptide […](ac)GQGK (SEQ ID NO: 119) (VIM [139], log 2 scale, drug vs DMSO): 0.00
- L/H ratio of acetylated peptide SK(ac)[…] (SEQ ID NO: 121) (VIM [294], log 2 scale, drug vs DMSO): 0.00
- L/H ratio of acetylated peptide LQDEIQNMK(ac)EEMAR (SEQ ID NO: 120) (VIM [373], log 2 scale, drug vs DMSO): 0.00
- light to heavy ratio (L/H ratio) of acetylated peptide, log 2 scale (VVVGK(ac)[…] (SEQ ID NO: 193), Protein disulfide-isomerase A4 [533], PDIA4): 0.00
- L/H ratio of acetylated peptide (VYISK(ac)CYR (SEQ ID NO: 394), Isoform 1 of Regulator of micro-tubule dynamics protein 3 [426], FAM82A2): −0.85 log 2
- light to heavy ratio (L/H ratio) of acetylated peptide TLLIK(ac)TVETR (SEQ ID NO: 269) (Vimentin [445], VIM, drug:DMSO): 0.00 log 2
- L/H ratio of acetylated peptide (WTPEVK(ac)[…] (SEQ ID NO: 442), Rho-related GTP-binding protein RhoC [104], RHOC): −0.39 log 2
- light to heavy ratio (L/H ratio) of acetylated peptide IAAYK(ac)SILQER (SEQ ID NO: 531) (X-ray repair cross-complementing protein 5 [265], gene XRCC5, inhibitor:DMSO): 0.00 log 2
- light to heavy ratio (L/H ratio) of acetylated peptide EEAIK(ac)FSEEQR (SEQ ID NO: 509) (X-ray repair cross-complementing protein 5 [648], gene XRCC5, inhibitor:DMSO): 0.00 log 2
- light to heavy ratio (L/H ratio) of acetylated peptide […](ac)HFQD (SEQ ID NO: 355) (X-ray repair cross-complementing protein 6 [605], XRCC6, drug:DMSO): −0.74 log 2
- L/H ratio of acetylated peptide ALQEK(ac)VEIK (SEQ ID NO: 123) (XRCC5 [665], log 2 scale, drug vs DMSO): 0.00
- L/H ratio of acetylated peptide (YHVSEK(ac)PYGIVEK (SEQ ID NO: 424), NADH dehydrogenase [ubiquinone] 1 beta subcomplex subunit 6 [93], NDUFB6): −1.00 log 2
- L/H ratio of acetylated peptide (YK(ac)[…] (SEQ ID NO: 417), Microsomal glutathione S-transferase 3 [37], MGST3): −0.59 log 2
- light to heavy ratio (L/H ratio) of acetylated peptide, log 2 scale (YLENGK(ac)ETLQR (SEQ ID NO: 163), Putative HLA class I histocompatibility antigen alpha chain H [200], HLA-H): 0.00
- light to heavy ratio (L/H ratio) of acetylated peptide, log 2 scale (YNCDK(ac)MICR (SEQ ID NO: 254), Ubiquitin-605 ribosomal protein L40 [93], UBA52): 0.00
- L/H ratio of acetylated peptide (YPPPYK(ac)HFWTAES (SEQ ID NO: 461), Isoform 2 of Ubiquitin-associated protein 2-like [976], UBAP2L): −0.50 log 2
- L/H ratio of acetylated peptide (YTEQITNEK(ac)LAMVK (SEQ ID NO: 423), NADH dehydrogenase [ubiquinone] 1 alpha subcomplex subunit 5 [55], NDUFA5): −0.40 log 2
- light to heavy ratio (L/H ratio) of acetylated peptide, log 2 scale ([…](ac)AAVR (SEQ ID NO: 220), Tricarboxylate transport protein mitochondrial [97], SLC25A1): 0.00
- light to heavy ratio (L/H ratio) of acetylated peptide, log 2 scale ([…](ac)DETEFR (SEQ ID NO: 137), UPF0568 protein C14orf166 [20], C14orf166): 0.00
- L/H ratio of acetylated peptide ([…](ac)DGEIYCK (SEQ ID NO: 383), Cysteine and glycine-rich protein 1 [161], CSRP1): −0.67 log 2
- L/H ratio of acetylated peptide ([…](ac)EKLNER (SEQ ID NO: 406), 60 kDa heat shock protein mitochondrial [387], HSPD1): 0.40 log 2
- L/H ratio of acetylated peptide ([…](ac)FDENAK (SEQ ID NO: 429), Phosphoglycerate kinase 1 [291], PGK1): 0.60 log 2
- L/H ratio of acetylated peptide ([…](ac)FIAR (SEQ ID NO: 441), Protein RCC2 [293], RCC2): 0.75 log 2
- light to heavy ratio (L/H ratio) of acetylated peptide, log 2 scale ([…](ac)FSDDHYR (SEQ ID NO: 190), NAD(P) transhydrogenase mitochondrial [100], NNT): 0.00
- L/H ratio of acetylated peptide ([…](ac)FVER (SEQ ID NO: 460), cDNA FLJ40024 fis clone STOMA2007745 highly similar to UBIQUITIN-[…] E1 [119], UBA1): 0.44 log 2
- L/H ratio of acetylated peptide ([…](ac)GDSK(ac)NAK (SEQ ID NO: 392), Histone acetyltransferase p300 [1542:1546], EP300): 0.53 log 2
